# Assay results taken from patent publication US20260272865A1, “HYDROXYPHENYL PROPANOATE COMPOUNDS FOR TUMOUR IMMUNOTHERAPY, COMPOSITIONS AND USES THEREOF” (UTI LIMITED PARTNERSHIP, priority 2023, published 2026).
# Key:
# [1] = target: T1, GSDMD (Homo sapiens, UniProt P57764); experiment: Western blot of GSDMD cleavage in THP-1 cells; format: cell-based
# T1 construct: host or cells: THP1-Dual cells (human monocytic reporter line)
# T1 sequence (P57764 1-484): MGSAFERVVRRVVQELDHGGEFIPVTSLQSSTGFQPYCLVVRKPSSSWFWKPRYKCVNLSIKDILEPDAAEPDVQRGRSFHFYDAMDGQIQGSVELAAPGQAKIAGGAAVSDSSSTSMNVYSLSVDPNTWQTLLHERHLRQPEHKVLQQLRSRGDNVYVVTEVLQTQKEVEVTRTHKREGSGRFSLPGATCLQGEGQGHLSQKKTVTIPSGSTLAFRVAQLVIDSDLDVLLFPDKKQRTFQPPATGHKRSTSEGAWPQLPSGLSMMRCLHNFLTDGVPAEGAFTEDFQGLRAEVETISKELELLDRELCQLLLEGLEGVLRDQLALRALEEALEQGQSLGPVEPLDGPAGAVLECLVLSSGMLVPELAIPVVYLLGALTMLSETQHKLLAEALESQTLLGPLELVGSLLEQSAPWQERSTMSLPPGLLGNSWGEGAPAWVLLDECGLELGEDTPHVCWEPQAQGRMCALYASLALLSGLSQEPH
# Experimental: Cells were collected and lysates prepared using total lysis buffer (50 mM Tris-HCl, pH 8.0; 150 mM NaCl; 1% Triton X-100; 1% SDS). The supernatant was obtained by centrifuging at 10,000 RPM for 10 minutes at 4° C. using a benchtop PCR centrifuge. Protein quantification was performed using the Bio-Rad DC Protein Assay Kit (Bio-Rad, NC, USA). Proteins were separated using 12% SDS-PAGE gels and transferred to a PVDF membrane using the Bio-Rad Trans-turbo semi-dry transfer apparatus at 25 V/1 A for 1 hour. The membrane was blocked with Tris-buffered-saline-Tween-20™ (TBST) containing 5% skim milk for 30 minutes at room temperature. The membrane was then probed overnight at 4° C. with rabbit monoclonal recombinant anti-GSDMD antibody (ab210070, Abcam), anti-cleaved N-terminal GSDMD antibody (ab215203, Abcam) and mouse anti-actin monoclonal antibody (MAB1501, MilliporeSigma) for human FL-GSDMD, CL-GSDMD and actin. The next day, the membranes were washed with TBST three times and probed with goat anti-rabbit (1706515, Bio-Rad) or goat anti-mouse (1706516, Bio-Rad) horseradish peroxidase-conjugated IgG for 1 hour at room temperature. The secondary antibodies were diluted in TBST containing 5% (w/v) skim milk at 1:5000 and the membranes washed with TBST before detecting the proteins of interest using the Clarity™ Western ECL Substrate (Bio-Rad) on a Chemidoc-IT Imager (UVP, Upland, CA, USA).
# [2] = system: M3-9-M tumours; experiment: Orthotopic M3-9-M rhabdomyosarcoma: tumour immune surveillance, growth, overall survival
# Experimental: Tumour cells were orthotopically implanted into 6-8 week old mice. […] For experiments with rhabdomyosarcoma models, mice were orthotopically implanted with 1.5×10^5 M3-9-M or M3-9-M^OVA cells in 50 μL of PBS into the right-behind leg gastrocnemius muscle using an insulin syringe. RMS tumour volume was calculated by subtracting the volume of the gastrocnemius muscle before tumour implantation from the volume after tumour implantation (length×width×height). […] Tumour measurements were taken twice weekly using skin calipers, from implantation day to either experimental or humane endpoints.
# Metabolite compounds were obtained from Sigma-Aldrich and prepared into metabolite stock solutions by dissolving them into UltraPure™ DNase/RNase-Free Distilled Water (Invitrogen™) with 1.0N NaOH (Sigma). The pH of the stock solutions was adjusted to 7.4-7.6 and determination of the endotoxin level of the solutions was completed through a limulus amebocyte lysate (LAL) test. […] To test the metabolite effects on anti-tumour immunity, 100 μL of the metabolite at 83 mg/kg bodyweight per mouse was administered intraperitoneally every 48 hours for seven doses. […] Three doses of 250 μg of either anti-PD-1 or anti-PD-L1 were administered intraperitoneally post tumour implantation on day 10, 13 and 16. To neutralize CD8 T cell in mice, anti-CD8 (clone 2.43; BioXcell) monoclonal antibody was used. 250 μg of anti-CD8 antibody in PBS per mouse was injected intraperitoneally 7 and 1 day before tumour implantation, followed by administering 100 μg of anti-CD8 in PBS into the mice on day 3, 7, and 10.
# [3] = target: T1, GSDMD; experiment: Thermal proteomic profiling (TPP) in intact THP1-Dual cells; format: binding
# Experimental: 24 mL of THP1-Dual™ cells (at a density of 1.5×10^6 cells/mL) were treated with 2 mM metabolite or vehicle control for 16 hours. The cells were then centrifuged at 340×g for 5 minutes at 4° C., resuspended in 20 mL of ice-cold PBS, and centrifuged again. The cells were resuspended in 1200 μL of PBS, divided into 10 aliquots of 100 μL in 0.2 mL PCR tubes and centrifuged at 325×g for 2 minutes at 4° C. 80 μL of the PBS supernatant was removed using a pipette and the tubes were gently tapped to resuspend the cells. Each of the metabolite and vehicle-treated cell tubes were then heated in parallel in a PCR machine for 3 minutes at temperatures ranging from 37° C. to 67° C. […] The entire content was centrifuged at 100,000×g for 20 minutes at 4° C., the supernatant was removed into a fresh tube, and the protein concentration of the 37° C. sample was measured. […] The volume of lysate that gave 200 μg of protein at the 37° C. temperature point was determined and removed into a fresh tube for all other temperature points.
# The proteins were cleaned up and the peptides digested following previously described methods (Science 346, (2014); Nat. Protoc. 10, 1567-1593 (2015)). […] The next day, the digested peptides were transferred to a fresh Eppendorf™ tube and the concentration of peptides measured in the 37° C. temperature point. […]
compound,measurement,setting,value
"O=C(O)CCc1ccccc1O [Compound I-1, 3-(2-hydroxyphenyl)propanoic acid]",GSDMD cleavage in the presence of LPS or LPS+NG stimulation,[1],facilitating gasdermin D cleavage
same,"overall survival, combination with ABX vs either treatment alone","[2]; female IMDM-CR mice, M3-9-M tumours, ABX plus 3,2-HPP",even higher overall survival
same,"overall survival, combination with anti-PD-1 vs anti-PD-1 alone","[2]; female IMDM-CR mice, M3-9-M tumours, 3,2-HPP i.p. plus anti-PD-1",further improvement
same,efficacy of treatment after depletion of CD8 T cells,"[2]; female IMDM-CR mice, M3-9-M, anti-CD8 neutralizing antibody (clone 2.43)",abrogated the efficacy
same,immune surveillance of M3-9-M tumours (overall survival),"[2]; female IMDM-CR mice, i.p. treatment from day 1 post-implantation vs vehicle",enhance the immune surveillance
same,effect on ABX-reduced immune surveillance,"[2]; female IMDM-JAX mice on ABX-supplemented drinking water, M3-9-M tumours",counteracted the negative effect of ABX
same,overall survival,"[2]; female IMDM-JAX mice, M3-9-M tumours, i.p. 3,2-HPP",increased the overall survival
same,response of non-immunogenic M3-9-M tumours to treatment,"[2]; male IMDM-CR mice, i.p. treatment from day 1",did not respond
same,GSDMD protein denaturation curve,[3]; NPARC test,impacted
same,number of potential protein targets identified (NPARC),"[3]; proteome-wide, 2 mM metabolite, 16 hours",647
